What was measured:
VP16 = biological target: T1, VP16 (Human herpesvirus 1, UniProt P06492); assay: Gal4-VP16 + pG5-LUC luciferase assay in HeLa cells; type: cell-based; conditions: 24 hours, only at higher compound concentrations
T1 construct: expressed in transfected cells; host or cells: HeLa

SRC-1 = SRC-1 (Homo sapiens, UniProt Q15788); assay: High throughput primary screen, HEK293 cells with pG5-luc and pBIND-SRC-1; type: cell-based; set-up: expressed in transfected cells; conditions: among 359,484 compounds
From the text: In a series of high throughput screens originally designed to identify SRC small molecule inhibitors, HEK293 cells transfected with a Gal4 responsive luciferase reporter (pG5-luc) and a construct encoding SRC-1, SRC-2 or SRC-3 fused with the DNA binding domain of Gal4 (pBIND-SRC-1, pBIND-SRC-2 or pBIND-SRC-3) were exposed to treatments with 359,484 compounds from a MLPCN chemical library (PubChem AID:588362, AID:652008 and AID:588354).

MEF cells = assay: MTS cell viability assay, mouse embryonic fibroblasts; type: cell-based; conditions: 48 hours
Description: Cell lines were maintained in DMEM (HeLa, MCF-7, HepG2), RPMI 1640 (H1299), or DMEM/F12 (PC-3) supplemented with 10% fetal calf serum, penicillin and streptomycin (100 U/ml). Primary mouse hepatocytes were isolated and cultured. Mouse embryonic fibroblasts (MEF) were cultured in DMEM. All cells were maintained at 37° C. under 5% CO2.
Cells were seeded in 96-well plates and allowed to reach 70% to 80% confluence. After indicated compound treatments, relative numbers of viable cells were measured by MTS assay using the Cell Titer 96 Aqueous One Solution Cell Proliferation Assay (Promega).

[1] = biological target: T2, receptor interacting domain (RID) of SRC-3 (Homo sapiens, UniProt Q9Y6Q9); assay: Fluorescence spectroscopy, intrinsic fluorescence quenching of GST SRC-3 RID; type: binding; conditions: 1.5 μM GST SRC-3 RID, excitation 278 nm; read-out: half-affecting concentration of intrinsic fluorescence quenching, SRC-3 RID
T2 construct: A total of 1.5 μM of GST SRC-3 RID, CID or bHLH was placed in a fluorescence cuvette; made in house
Description: Fluorescence spectrometric measurements were performed on a SLM 48000S fluorescence spectrophotometer (SLM-Aminco, Rochester, N.Y.) and an Agilent Cary Eclipse Fluorescence spectrophotometer (Agilent Technologies, Inc., Santa Clara, Calif.) using the GST fusion proteins of different portions of SRC-3 expressed and purified. A total of 1.5 μM of GST SRC-3 RID, CID or bHLH was placed in a fluorescence cuvette and excited by UV light at a wavelength of 278 nm with a 2 nm bandwidth and the emission spectra were recorded from 290 nm to above 500 nm with a bandwidth of 4 nm. The aliquot size of test compound was maintained below 5% of the total sample volume in order to minimize the effects of dilution.

HeLa cells [2] = assay: Western blot of stress, UPR, autophagy and apoptosis markers in HeLa cells; type: cell-based
Description: (§1) For Western blotting, cells were harvested and lysed in lysis buffer (50 mM Tris, pH 8.0, 150 mM NaCl, 10% glycerol, 0.5% NP40, protease and phosphatase inhibitor) and then centrifuged for 15 min at 14000 rpm at 4° C. After total cellular protein concentration was determined by Bradford analysis (Bio-Rad, Hercules, Calif.), protein lysates were loaded onto and resolved by sodium dodecyl sulfate-polyacrylamide gel electrophoresis (SDS-PAGE) and transferred to PVDF membranes (BioRad) which were blocked and incubated with indicated antibodies. For immunoprecipitation, 10 μg of plasmid encoding FLAG-SRC-3 was transfected into HeLa cells with 90% confluence in one 10 cm plate with lipofectamine 2000 (Invitrogen). Twenty-four hours after transfection, the cells were treated with MCB-613 for one hour and lysed with lysis buffer (25 mM Tris-Cl pH7.5, 150 mM NaCl, 5% glycerol, 1 mM EDTA, 1% Triton X-100, protease and phosphatase inhibitor) at 4° C. After a 30-second sonication, the lysate was cleared by centrifugation at 14000 rpm at 4° C. for 15 minutes and was incubated with anti-Flag-M2 agarose affinity gel (Sigma) for four hours. The agarose gel was washed four times with washing buffer (25 mM Tris pH 8.0, 150 mM NaCl, 1 mM EDTA, 1% Triton X-100) and resuspended with SDS loading buffer for Western blotting.

HeLa cells [3] = assay: MTS cell viability assay, HeLa cells; type: cell-based; conditions: SRC-3 KO vs WT HeLa, 24 hours
SRC-2 = biological target: T3, SRC-2 (Homo sapiens, UniProt Q15596); assay: Gal4 luciferase reporter assay (pBIND-SRC-2 + pG5-LUC) in HeLa cells; type: cell-based; conditions: 24-hour treatment, 5-8 μM, maximum over SRC-1/-2/-3
T3 construct: expressed in transfected cells; host or cells: HeLa
Description: The constructs expressing the Gal4 responsive luciferase reporter (pG5-luc), Gal4 DBD fusion with SRC-1, […] (pBIND-SRC-1/-2/-3), MMP2 or MMP13 promoter driven luciferase reporter (MMP2-luc, MMP13-luc) were prepared. Twenty-four hours before transfection, HeLa cells were plated in 24-well dishes. The indicated expression plasmids were transfected into cells using Lipofectamine 2000 according to the manufacturer's instructions.
After various compound treatments, cells were lysed in luciferase lysis buffer and assayed for luciferase activity using the ONE-Glo luciferase assay system (Promega, Madison, Wis.). All luciferase activities were normalized to protein concentration determined by Bradford assay (Bio-Rad, Hercules, Calif.).

intracellular ROS levels = assay: Measurement of reactive oxygen species with CM-H2DCFDA; type: cell-based; conditions: 30 minutes treatment
Description: Cells were loaded with 10 μM general ROS indicator CM-H2DCFDA in serum free DMEM for 30 minutes at 37° C. in the dark. After a 5-minute recovery in complete DMEM, cells were treated with indicated concentrations of MCB-613 for 30 minutes, then fixed and examined by fluorescence microscopy.

Abl kinase = assay: CrkL (Y207) phosphorylation as marker for Abl activation in HeLa cells; type: cell-based; conditions: 1 hour and 4 hours
Description: as §1, with “blotting. […]” for “blotting.”

SRC-3-CBP-CARM1 complex = biological target: T4, SRC-3-CBP-CARM1 complex (Homo sapiens, UniProt Q9Y6Q9); assay: Coimmunoprecipitation of FLAG-SRC-3 with CBP and CARM1 in HeLa cells; type: cell-based; conditions: HeLa cells overexpressing FLAG-SRC-3, one hour, dose-dependent
T4 construct: expressed in transfected cells; host or cells: HeLa
Description: as §1, with “blotting. […]” for “blotting.”

T4 sequence (Q9Y6Q9 whole entry): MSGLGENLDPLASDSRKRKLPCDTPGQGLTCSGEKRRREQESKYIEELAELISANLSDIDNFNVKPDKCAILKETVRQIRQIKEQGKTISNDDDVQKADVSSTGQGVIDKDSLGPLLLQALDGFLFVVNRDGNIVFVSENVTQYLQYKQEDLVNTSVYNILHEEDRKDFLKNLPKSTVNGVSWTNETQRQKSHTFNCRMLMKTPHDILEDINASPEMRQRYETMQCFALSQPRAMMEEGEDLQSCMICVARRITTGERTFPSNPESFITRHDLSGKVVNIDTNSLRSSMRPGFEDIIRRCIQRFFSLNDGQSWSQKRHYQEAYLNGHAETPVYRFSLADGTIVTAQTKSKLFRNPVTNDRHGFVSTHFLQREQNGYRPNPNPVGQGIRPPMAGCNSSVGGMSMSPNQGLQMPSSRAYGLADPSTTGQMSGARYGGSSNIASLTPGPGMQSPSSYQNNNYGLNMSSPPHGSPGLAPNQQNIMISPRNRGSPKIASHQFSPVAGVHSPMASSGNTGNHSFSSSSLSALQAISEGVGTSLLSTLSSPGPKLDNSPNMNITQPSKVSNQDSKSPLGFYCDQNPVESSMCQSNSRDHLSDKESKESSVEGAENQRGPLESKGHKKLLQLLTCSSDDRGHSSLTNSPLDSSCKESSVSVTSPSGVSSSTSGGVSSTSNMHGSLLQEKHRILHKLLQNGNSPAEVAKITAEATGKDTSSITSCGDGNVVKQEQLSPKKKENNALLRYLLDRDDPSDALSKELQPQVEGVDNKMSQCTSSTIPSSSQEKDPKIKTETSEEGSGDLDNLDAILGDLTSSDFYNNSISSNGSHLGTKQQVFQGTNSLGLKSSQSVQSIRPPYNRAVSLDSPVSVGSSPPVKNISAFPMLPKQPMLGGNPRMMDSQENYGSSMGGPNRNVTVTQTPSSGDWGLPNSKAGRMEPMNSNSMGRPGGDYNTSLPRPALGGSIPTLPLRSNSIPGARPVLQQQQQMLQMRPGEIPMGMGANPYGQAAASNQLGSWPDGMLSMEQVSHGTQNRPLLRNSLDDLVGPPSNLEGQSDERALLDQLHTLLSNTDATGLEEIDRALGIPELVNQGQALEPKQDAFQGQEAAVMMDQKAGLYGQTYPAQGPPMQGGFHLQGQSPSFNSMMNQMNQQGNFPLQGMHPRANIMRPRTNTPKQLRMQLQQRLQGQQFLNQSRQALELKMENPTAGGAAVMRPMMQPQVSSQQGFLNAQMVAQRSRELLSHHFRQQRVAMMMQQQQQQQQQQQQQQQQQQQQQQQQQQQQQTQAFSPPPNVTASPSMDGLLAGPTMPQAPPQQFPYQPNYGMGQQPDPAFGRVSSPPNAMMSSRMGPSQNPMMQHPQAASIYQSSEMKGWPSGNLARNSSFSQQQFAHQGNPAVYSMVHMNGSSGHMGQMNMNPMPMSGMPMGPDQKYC
T4 sequence (Q92793 whole entry partner): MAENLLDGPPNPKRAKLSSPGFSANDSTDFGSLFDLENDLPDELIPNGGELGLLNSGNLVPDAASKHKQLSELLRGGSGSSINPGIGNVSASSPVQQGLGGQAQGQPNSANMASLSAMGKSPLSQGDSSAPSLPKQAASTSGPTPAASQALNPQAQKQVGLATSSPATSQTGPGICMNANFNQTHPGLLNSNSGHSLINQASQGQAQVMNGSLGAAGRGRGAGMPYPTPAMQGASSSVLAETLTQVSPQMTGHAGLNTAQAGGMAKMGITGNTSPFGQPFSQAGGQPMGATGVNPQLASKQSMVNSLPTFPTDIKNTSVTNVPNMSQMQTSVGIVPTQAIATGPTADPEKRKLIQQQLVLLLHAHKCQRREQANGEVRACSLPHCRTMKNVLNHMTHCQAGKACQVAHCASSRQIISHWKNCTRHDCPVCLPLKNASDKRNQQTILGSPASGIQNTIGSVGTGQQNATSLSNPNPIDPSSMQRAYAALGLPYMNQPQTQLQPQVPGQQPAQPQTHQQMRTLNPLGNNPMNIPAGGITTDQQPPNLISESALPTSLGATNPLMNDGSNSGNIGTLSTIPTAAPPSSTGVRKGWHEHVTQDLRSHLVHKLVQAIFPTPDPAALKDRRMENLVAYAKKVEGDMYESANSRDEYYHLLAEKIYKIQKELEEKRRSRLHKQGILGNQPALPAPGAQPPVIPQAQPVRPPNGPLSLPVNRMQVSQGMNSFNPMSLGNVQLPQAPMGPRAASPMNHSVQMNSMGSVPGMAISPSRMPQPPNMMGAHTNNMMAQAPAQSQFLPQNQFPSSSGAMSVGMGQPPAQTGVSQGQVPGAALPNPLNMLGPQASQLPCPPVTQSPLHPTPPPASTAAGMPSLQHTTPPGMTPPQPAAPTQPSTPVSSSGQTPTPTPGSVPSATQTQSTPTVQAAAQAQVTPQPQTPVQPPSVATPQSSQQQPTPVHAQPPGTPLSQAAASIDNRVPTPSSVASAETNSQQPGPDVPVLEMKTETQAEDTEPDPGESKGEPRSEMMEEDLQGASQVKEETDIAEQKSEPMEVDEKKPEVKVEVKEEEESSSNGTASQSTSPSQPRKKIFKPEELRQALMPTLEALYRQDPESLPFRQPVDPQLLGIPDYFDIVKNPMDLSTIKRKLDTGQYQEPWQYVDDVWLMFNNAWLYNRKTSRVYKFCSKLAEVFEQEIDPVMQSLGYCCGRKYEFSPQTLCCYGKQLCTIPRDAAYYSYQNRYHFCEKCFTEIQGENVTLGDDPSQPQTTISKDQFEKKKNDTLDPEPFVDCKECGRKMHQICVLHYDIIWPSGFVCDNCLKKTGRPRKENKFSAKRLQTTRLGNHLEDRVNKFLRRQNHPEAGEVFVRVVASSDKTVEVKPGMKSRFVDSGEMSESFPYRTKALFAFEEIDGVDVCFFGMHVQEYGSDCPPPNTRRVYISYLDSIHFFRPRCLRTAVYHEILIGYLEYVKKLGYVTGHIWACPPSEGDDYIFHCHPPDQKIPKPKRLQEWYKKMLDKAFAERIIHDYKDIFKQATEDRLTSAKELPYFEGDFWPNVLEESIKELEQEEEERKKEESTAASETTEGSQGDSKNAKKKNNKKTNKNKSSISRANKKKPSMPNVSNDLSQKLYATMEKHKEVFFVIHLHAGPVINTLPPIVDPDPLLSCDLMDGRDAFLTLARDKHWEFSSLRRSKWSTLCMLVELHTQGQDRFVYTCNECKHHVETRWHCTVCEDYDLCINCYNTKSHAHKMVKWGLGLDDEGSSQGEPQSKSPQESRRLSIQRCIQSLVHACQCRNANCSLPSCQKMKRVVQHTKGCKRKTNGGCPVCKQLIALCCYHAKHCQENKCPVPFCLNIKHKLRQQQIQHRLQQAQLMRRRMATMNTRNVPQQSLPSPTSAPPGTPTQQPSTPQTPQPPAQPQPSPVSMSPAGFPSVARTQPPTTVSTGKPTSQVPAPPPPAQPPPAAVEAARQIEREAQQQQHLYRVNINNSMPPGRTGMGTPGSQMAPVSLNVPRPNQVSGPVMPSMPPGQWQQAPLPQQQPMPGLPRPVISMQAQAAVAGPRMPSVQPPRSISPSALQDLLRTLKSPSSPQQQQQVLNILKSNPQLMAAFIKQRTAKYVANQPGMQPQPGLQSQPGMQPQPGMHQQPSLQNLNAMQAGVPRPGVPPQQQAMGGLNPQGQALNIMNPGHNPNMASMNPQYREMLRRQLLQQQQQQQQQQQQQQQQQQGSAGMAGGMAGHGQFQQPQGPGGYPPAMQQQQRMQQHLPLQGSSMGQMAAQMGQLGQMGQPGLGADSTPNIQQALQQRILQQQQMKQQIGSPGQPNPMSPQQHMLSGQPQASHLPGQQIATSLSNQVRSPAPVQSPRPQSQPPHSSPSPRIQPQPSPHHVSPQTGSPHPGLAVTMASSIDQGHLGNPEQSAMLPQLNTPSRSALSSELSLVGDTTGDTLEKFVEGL
T4 sequence (Q86X55 whole entry partner): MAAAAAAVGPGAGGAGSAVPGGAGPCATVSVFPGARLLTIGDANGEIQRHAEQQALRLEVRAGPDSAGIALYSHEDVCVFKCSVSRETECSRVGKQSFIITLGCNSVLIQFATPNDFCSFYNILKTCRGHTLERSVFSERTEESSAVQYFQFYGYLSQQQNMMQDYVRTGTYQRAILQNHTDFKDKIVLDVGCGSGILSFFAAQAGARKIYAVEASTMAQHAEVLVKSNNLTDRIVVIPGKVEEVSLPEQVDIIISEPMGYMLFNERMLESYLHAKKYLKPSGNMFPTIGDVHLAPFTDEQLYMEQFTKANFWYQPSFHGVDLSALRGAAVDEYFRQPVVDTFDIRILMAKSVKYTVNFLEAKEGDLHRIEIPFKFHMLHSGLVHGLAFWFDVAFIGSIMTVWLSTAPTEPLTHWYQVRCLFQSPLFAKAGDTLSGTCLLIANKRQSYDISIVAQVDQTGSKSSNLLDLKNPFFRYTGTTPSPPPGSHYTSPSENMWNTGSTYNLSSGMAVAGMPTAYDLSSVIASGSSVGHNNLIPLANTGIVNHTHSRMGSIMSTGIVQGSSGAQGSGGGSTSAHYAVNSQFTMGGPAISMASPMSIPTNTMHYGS
T1 sequence (P06492 413-490): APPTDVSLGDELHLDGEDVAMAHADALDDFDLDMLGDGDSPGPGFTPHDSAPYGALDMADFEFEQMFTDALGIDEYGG
T2 sequence (Q9Y6Q9 582-840 limits assumed): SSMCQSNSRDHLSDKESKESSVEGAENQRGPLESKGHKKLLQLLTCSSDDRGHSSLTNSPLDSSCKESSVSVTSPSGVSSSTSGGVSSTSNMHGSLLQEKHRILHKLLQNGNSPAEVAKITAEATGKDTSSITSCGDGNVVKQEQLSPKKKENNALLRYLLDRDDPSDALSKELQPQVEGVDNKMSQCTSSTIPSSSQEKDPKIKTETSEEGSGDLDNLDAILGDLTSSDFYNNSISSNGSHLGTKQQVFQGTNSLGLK

CCC1CC(=Cc2cccnc2)C(=O)C(=Cc2cccnc2)C1 (centres unmarked) [MCB-613, 4-Ethyl-2,6-bis-pyridin-3-ylmethylene-cyclohexanone]
activity of GAL4-VP16 fusion protein (VP16): minimally increasing the activity | activation of SRC-1 in the primary screen (SRC-1): greatest activation | cytotoxicity to normal cells (MEF cells): resistant | EC50 [1]: 10 µM | proteasome function and ER stress (polyubiquitinated proteins, UPR markers) (HeLa cells [2]; 4-5 hours): leads to proteasome dysfunction and ER stress | autophagy and apoptosis markers (HeLa cells [2]; 24 hours): led to the induction of LC3BII and caspase-3 cleavage | viability of SRC-3 KO HeLa cells compared with WT cells (HeLa cells [3]): less affected | induction in the activity of pBIND-SRC-2 (SRC-2): ≤ 160 fold | intracellular ROS levels (intracellular ROS levels): rapid and marked increase | activation of Abl (CrkL Y207 phosphorylation) (Abl kinase): activation of Abl could be observed as early as one hour | SRC-3's interaction with CBP and CARM1 (SRC-3-CBP-CARM1 complex): increased

Reference: patent US11312676B2, “Small molecule stimulators of steroid receptor coactivator proteins and their use in the treatment of cancer” (BAYLOR COLLEGE OF MEDICINE, priority 2014, dated 2022)
